Laboratory results as given in PubChem BioAssay AID2060627 (Molecular Pharmacology Branch, DTP, NCI, 2025).
“And” between values parts separate entries of the source, which are not always exact repeats. Equal values may be shown once.

System: 156681-154-R-J1-PDC complex spheroid viability
Test: Anticancer human tumor 156681-154-R-J1-PDC patient-derived melanoma cell line growth inhibition [CLK]
Settings: for viability, T/C: stronger effect = lower value
Method in brief: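 Multi-cell-type spheroids combined patient-derived tumor cells with HUVEC endothelial cells and human mesenchymal stem cells. Paired agents were dosed in half-log steps down from about clinical Cmax, or from 10 microM where Cmax was unknown.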

[1] = curve of first compound, second compound 0.0316 µM
[2] = curve of first compound, second compound 0.1 µM
[3] = curve of first compound, second compound 0.316 µM
[4] = curve of first compound, second compound 1 µM
[5] = curve of first compound, second compound 3.16 µM
[6] = curve of first compound, second compound 10 µM
[7] = second compound 0.0316 µM, first compound 0.0316 µM
[8] = second compound 0.0316 µM, first compound 0.1 µM
[9] = second compound 0.0316 µM, first compound 0.316 µM
[10] = second compound 0.0316 µM, first compound 1 µM
[11] = second compound 0.0316 µM, first compound 3.16 µM
[12] = second compound 0.0316 µM, first compound 10 µM
[13] = second compound 0.1 µM, first compound 0.0316 µM
[14] = second compound 0.1 µM, first compound 0.1 µM
[15] = second compound 0.1 µM, first compound 0.316 µM
[16] = second compound 0.1 µM, first compound 1 µM
[17] = second compound 0.1 µM, first compound 3.16 µM
[18] = second compound 0.1 µM, first compound 10 µM
[19] = second compound 0.316 µM, first compound 0.0316 µM
[20] = second compound 0.316 µM, first compound 0.1 µM
[21] = second compound 0.316 µM, first compound 0.316 µM
[22] = second compound 0.316 µM, first compound 1 µM
[23] = second compound 0.316 µM, first compound 3.16 µM
[24] = second compound 0.316 µM, first compound 10 µM
[25] = second compound 1 µM, first compound 0.0316 µM
[26] = second compound 1 µM, first compound 0.1 µM
[27] = second compound 1 µM, first compound 0.316 µM
[28] = second compound 1 µM, first compound 1 µM
[29] = second compound 1 µM, first compound 3.16 µM
[30] = second compound 1 µM, first compound 10 µM
[31] = second compound 3.16 µM, first compound 0.0316 µM
[32] = second compound 3.16 µM, first compound 0.1 µM
[33] = second compound 3.16 µM, first compound 0.316 µM
[34] = second compound 3.16 µM, first compound 1 µM
[35] = second compound 3.16 µM, first compound 3.16 µM
[36] = second compound 3.16 µM, first compound 10 µM
[37] = second compound 10 µM, first compound 0.0316 µM
[38] = second compound 10 µM, first compound 0.1 µM
[39] = second compound 10 µM, first compound 0.316 µM
[40] = second compound 10 µM, first compound 1 µM
[41] = second compound 10 µM, first compound 3.16 µM
[42] = second compound 10 µM, first compound 10 µM
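Note: spheroids exposed to the agents for seven days.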
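Throughout, for viability, T/C: 100% = DMSO vehicle control viability.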

What does the source list for `NC(=O)C(=Cn1cnc(-c2cc(C(F)(F)F)cc(C(F)(F)F)c2)n1)c1cncnc1`?
viability, T/C (compound 0.00949 µM): 79.6% and 73.7%; viability, T/C (compound 0.03 µM): 67.2% and 49.7%; viability, T/C (compound 0.0949 µM): 46.6% and 36.5%; viability, T/C (compound 0.3 µM): 14.8% and 11.8%; viability, T/C (compound 0.949 µM): 6.97% and 7.35%; viability, T/C (compound 3 µM): 4.72% and 4.92%; IC50 (curve of compound): 73.9 nM and 34.7 nM

For `C#Cc1c(F)ccc2cc(O)cc(-c3ncc4c(N5CC6CCC(C5)N6)nc(OCC56CCCN5CC(F)C6)nc4c3F)c12` (stereo unspecified) + CN1CCN(c2cc(C(=O)Nc3cc4cc(-c5cnn(C)c5)ccc4cn3)ccn2)CC1, which IC50 [1] is on record?
The IC50 was > 10000 nM.

What about the IC50 [2] of the same compound?
Its IC50 is > 10000 nM.

What about the IC50 [3] of the same compound?
The IC50 was < 31.6 nM.

And the IC50 [4]?
Its IC50 is < 31.6 nM.

And the IC50 [5]?
The IC50 was < 31.6 nM.

And the IC50 [6]?
The IC50 was < 31.6 nM.

And the viability, T/C [7]?
The viability, T/C was 100%.

And the viability, T/C [8]?
The viability, T/C was 81.5%.

And the viability, T/C [9]?
The viability, T/C was 97%.

What about the viability, T/C [10] of the same compound?
Its viability, T/C is 120%.

What about the viability, T/C [11] of the same compound?
The viability, T/C was 98.2%.

And the viability, T/C [12]?
The viability, T/C was 119%.

What about the viability, T/C [13] of the same compound?
Its viability, T/C is 84.4%.

And the viability, T/C [14]?
Its viability, T/C is 86.7%.

What about the viability, T/C [15] of the same compound?
Its viability, T/C is 92.6%.

What about the viability, T/C [16] of the same compound?
The viability, T/C was 100%.

And the viability, T/C [17]?
The viability, T/C was 95.8%.

What about the viability, T/C [18] of the same compound?
The viability, T/C was 97%.

What about the viability, T/C [19] of the same compound?
The viability, T/C was 29%.

And the viability, T/C [20]?
Its viability, T/C is 22.5%.

And the viability, T/C [21]?
The viability, T/C was 25.9%.

What about the viability, T/C [22] of the same compound?
Its viability, T/C is 26.7%.

And the viability, T/C [23]?
The viability, T/C was 31.9%.

What about the viability, T/C [24] of the same compound?
Its viability, T/C is 20.6%.

And the viability, T/C [25]?
Its viability, T/C is 0.31%.

What about the viability, T/C [26] of the same compound?
Its viability, T/C is 2.37%.

And the viability, T/C [27]?
Its viability, T/C is 0.28%.

And the viability, T/C [28]?
Its viability, T/C is 0.23%.

And the viability, T/C [29]?
Its viability, T/C is 0.15%.

And the viability, T/C [30]?
Its viability, T/C is 1.07%.

What about the viability, T/C [31] of the same compound?
The viability, T/C was 0.15%.

And the viability, T/C [32]?
The viability, T/C was 0.39%.

What about the viability, T/C [33] of the same compound?
The viability, T/C was 0.11%.

And the viability, T/C [34]?
The viability, T/C was 0.49%.

And the viability, T/C [35]?
Its viability, T/C is 0.15%.

And the viability, T/C [36]?
Its viability, T/C is 0.12%.

And the viability, T/C [37]?
The viability, T/C was 0.19%.

What about the viability, T/C [38] of the same compound?
The viability, T/C was 2.4%.

What about the viability, T/C [39] of the same compound?
Its viability, T/C is 0.37%.

What about the viability, T/C [40] of the same compound?
The viability, T/C was 0.17%.

And the viability, T/C [41]?
The viability, T/C was 0.18%.

And the viability, T/C [42]?
Its viability, T/C is 0.17%.

Which results are given for `CC1(C)CCC(CN2CCN(c3ccc(C(=O)NS(=O)(=O)c4ccc(NCC5CCOCC5)c([N+](=O)[O-])c4)c(Oc4cnc5[nH]ccc5c4)c3)CC2)=C(c2ccc(Cl)cc2)C1` + CN1CCN(c2cc(C(=O)Nc3cc4cc(-c5cnn(C)c5)ccc4cn3)ccn2)CC1?
IC50 [1]: 4990 nM; IC50 [2]: 4370 nM; IC50 [3]: < 31.6 nM; IC50 [4]: < 31.6 nM; IC50 [5]: < 31.6 nM; IC50 [6]: < 31.6 nM; viability, T/C [7]: 99.7%; viability, T/C [8]: 116%; viability, T/C [9]: 90.8%; viability, T/C [10]: 103%; viability, T/C [11]: 81.6%; viability, T/C [12]: 1.68%; viability, T/C [13]: 97.8%; viability, T/C [14]: 83.3%; viability, T/C [15]: 86%; viability, T/C [16]: 88.8%; viability, T/C [17]: 69.2%; viability, T/C [18]: 0.79%; viability, T/C [19]: 18.2%; viability, T/C [20]: 19.7%; viability, T/C [21]: 24.4%; viability, T/C [22]: 17.9%; viability, T/C [23]: 8.72%; viability, T/C [24]: 0.28%; viability, T/C [25]: 0.22%; viability, T/C [26]: 0.91%; viability, T/C [27]: 0.19%; viability, T/C [28]: 0.18%; viability, T/C [29]: 2.05%; viability, T/C [30]: 0.07%; viability, T/C [31]: 2.04%; viability, T/C [32]: 0.47%; viability, T/C [33]: 0.27%; viability, T/C [34]: 0.09%; viability, T/C [35]: 3.38%; viability, T/C [36]: 0.4%; viability, T/C [37]: 0.1%; viability, T/C [38]: 3.06%; viability, T/C [39]: 2.9%; viability, T/C [40]: 0.17%; viability, T/C [41]: 0.91%; viability, T/C [42]: 0.56%
